# Measurements: article PMC6017873 (Molecules : A Journal of Synthetic Chemistry and Natural …, 2018)
# pIC50: −log10 of the molar value.
# How the values were obtained:
# [1] = test system: U-373 cells; assay: Acetylation of sirtuin targets by Western blot, U-373; format: cell-based, human; details: U-373, 5 and 50 µM, 8 h
# Method: (§1) Figure 5 Effect of eurochevalierine on the acetylation status of sirtuin targets. SK-MEL-28, U-373, and A-549 cells were treated with 5 and 50 µM eurochevalierine (EU) for 8 h. Acetylation of histone H4 (AcH4), histone H3 at lysine 56 (AcH3K56), and α-tubulin (Ac α-tubulin) was analyzed via Western blot. β-actin and histone H1 were used as loading controls for the analysis of total and acid extracts, respectively. SAHA (S, 1 µM) was used as a reference HDAC inhibitor. Blots are representative of three independent experiments.
# (§2) Total proteins were extracted using the MPER® reagent (Thermo-scientific, Erembodegem-Aalst, Belgium) supplemented by 1× protease inhibitor cocktail (Complete EDTA-free, Roche, Prophac, Luxembourg, Luxembourg) according to manufacturer’s instructions. Histones were extracted as previously described. Western blots were carried out as previously reported.
# (§3) Corresponding secondary antibodies were from Santa Cruz Biotechnology.
# [2] = test system: primary human CD34+ stem/progenitor cells; assay: Growth and viability of primary CD34+ stem/progenitor cells; format: cell-based
# Method: Figure 7 Only very high concentrations of eurochevalierine impair the growth of healthy primary human CD34^+ stem/progenitor cells. CD34^+ cells were incubated with the indicated concentrations of eurochevalierine and cell growth (a) and viability (b) were assessed after 72 h of treatment. Results correspond to the mean ± SD of three independent experiments with * and ** indicate p < 0.05 and p < 0.01 versus control.
# Primary CD34^+ progenitor/stem cells were isolated from human umbilical cord blood obtained from the Clinique Bohler (Hôpitaux Robert Schuman, Luxembourg, Luxembourg) with the written informed consent of parents with the approval of the National Research Ethics Committee of Luxembourg. First, mononucleated cells were isolated by Ficoll™ (GE Healthcare, Roosendaal, The Netherlands) density gradient centrifugation. CD34^+ cells were then purified out from mononucleated cells using magnetic cell sorting following the manufacturer’s instructions (MACS Miltenyi, Utrecht, The Netherlands).
# High purity CD34^+ cells were treated after 3 days of amplification in Stemline® II Hematopoietic Stem cell Expansion Medium (Sigma) supplemented with 1% antibiotic-antimycotic (BioWhittaker®, Lonza, Verviers, Belgium), 4 mM L-glutamine (BioWhittaker®), 50 ng/mL stem cell factor (ReliaTech, Wolfenbüttel, Germany), and 10 ng/mL interleukin 3 (Reliatech, Wolfenbüttel, Germany). Other cell models were cultured in RPMI1640 (BioWhittaker®) supplemented with 10% heat-inactivated fetal calf serum (BioWhittaker®) and 1% antibiotic-antimycotic. Cell lines were cultured at 37 °C in a humid atmosphere and at 5% CO2.
# PBMCs and CD34^+ cells were processed through a semi-automated image-based cell analyzer (Cedex XS Innovatis, Roche, Luxembourg), which provides information about cell concentration and viability based on the Trypan Blue exclusion method.
# [3] = test system: total HDAC activity (K-562 nuclear extracts); assay: In vitro total HDAC activity using K-562 nuclear extracts; format: biochemical, human; details: 100 µM
# Method: (§4) (a) In vitro total HDAC activity was evaluated using K-562 nuclear extracts in the presence of various concentrations of eurochevalierine. (b) Selective in vitro HDAC activity assays were carried out using selected recombinant HDAC proteins in the presence of various concentrations of eurochevalierine. Results are reported as percent of DMSO vehicle control and expressed as the mean ± SD of three independent experiments. * and ** indicate p < 0.05 and p < 0.01 versus untreated cells, respectively.
# [4] = target: HDAC1 (Homo sapiens, UniProt Q13547); assay: Selective in vitro HDAC activity assay, recombinant HDAC1; format: biochemical; details: 100 µM
# Sequence of HDAC1 (Q13547 whole entry): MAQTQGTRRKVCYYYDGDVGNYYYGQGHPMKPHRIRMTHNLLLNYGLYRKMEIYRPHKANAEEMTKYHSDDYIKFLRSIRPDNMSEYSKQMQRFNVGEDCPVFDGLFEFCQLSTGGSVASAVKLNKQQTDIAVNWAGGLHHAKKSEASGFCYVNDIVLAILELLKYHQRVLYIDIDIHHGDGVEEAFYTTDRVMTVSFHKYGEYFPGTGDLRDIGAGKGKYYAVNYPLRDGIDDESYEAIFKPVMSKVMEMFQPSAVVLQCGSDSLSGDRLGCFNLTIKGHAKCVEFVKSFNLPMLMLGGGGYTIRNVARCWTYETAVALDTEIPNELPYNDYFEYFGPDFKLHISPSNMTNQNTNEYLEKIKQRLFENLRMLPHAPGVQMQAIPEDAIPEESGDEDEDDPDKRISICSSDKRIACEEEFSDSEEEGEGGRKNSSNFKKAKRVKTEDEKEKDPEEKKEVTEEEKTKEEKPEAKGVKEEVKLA
# Method: as §4
# [5] = test system: U-373 cells; assay: Sub-G1 fraction by PI flow cytometry, U-373; format: cell-based, human; details: U-373, 50 µM, 72 h
# Method: (§5) Figure 2 Effect of eurochevalierine on cell cycle distribution. Cells were treated with 50 µM eurochevalierine for 72 h and then stained with propidium iodide (PI), and DNA content was measured by flow cytometry. (a) Cell cycle distribution profile in A-549 cells. Results of three independent experiments are represented on the same graph. (b) Quantification of the number of cells in sub-G1 fraction as a percentage of the total cell population. Results are expressed as mean ± SD of at least three independent experiments.
# (§6) Cells were collected, fixed, and stained with the APO AF TUNEL detection kit (BD, Erembodegem, Belgium) allowing analysis of both apoptosis and cell cycle at the same time. The experiment was conducted accordingly to the procedure of the manufacturer. Data were obtained through flow cytometry with a Cell Lab Quanta apparatus (Analis, Suarlee, Belgium).
# [6] = test system: A-549 cells; assay: Sub-G1 fraction by PI flow cytometry, A-549; format: cell-based, human; details: A-549, 50 µM, 72 h
# Method: as §5, §6
# [7] = test system: A-549 cells; assay: Acetylation of sirtuin targets by Western blot, A-549; format: cell-based, human; details: A-549, 5 and 50 µM, 8 h
# Method: as §1, §2, §3
compound,measurement,setting,value
"C=C(C)[C@@H]1CC[C@@H](C)[C@@]2(O)[C@@H]1C=C(C)[C@@H](OC(C)=O)[C@@H]2OC(=O)[C@H](CC(=O)c1ccccc1NC)NC=O [Eurochevalierine, eurochevalierine]","acetylation of sirtuin targets (AcH4, AcH3K56, Ac α-tubulin)",[1],robust and dose-dependent increase
same,impact on CD34+ cell viability,"[2]; 200 µM, 72 h",minor impact on cell viability
same,pIC50,"[2]; Homo sapiens, 72 h, read-out: IC50 growth inhibition of CD34+ cells",< 3.70
same,inhibition at 200 µM,"[2]; Homo sapiens, 200 µM, 72 h, read-out: maximum growth inhibition of CD34+ cells",~30%
same,selectivity factor cancer cells versus normal proliferating CD34+ cells,[2]; IC50 in healthy cells (>200 µM) versus mean IC50 in cancer cells (28 µM),> 7
same,inhibition of total HDAC activity,[3],about 33%
same,effect on HDAC1 deacetylase activity,[4],without effect
same,sub-G1 fraction,[5],did not increase the sub-G1 fraction
same,sub-G1 fraction,[6],did not increase the sub-G1 fraction
same,"acetylation of sirtuin targets (AcH4, AcH3K56, Ac α-tubulin)",[7],robust and dose-dependent increase
